According to patent US10266577B2, “GLP-1 derivatives, and uses thereof” (Novo Nordisk A/S, priority 2013, dated 2019):
Numbered stars: 1 amine (or outer) side, 2 acyl side, 3 side chain; on linkers, the order of the positions; unused ones are H or OH. Square brackets hold non-standard residues; d marks the D form. Side chains are listed from the residue outwards. Peptide text beside a SMILES is read from it. * marks the point of attachment. Hexadecanoyl(16-SO3H) = O=C(CCCCCCCCCCCCCCCS(=O)(=O)O)*; C18 diacid = O=C(O)CCCCCCCCCCCCCCCCC(=O)*; γGlu = O=C(O)[C@H](CCC(=O)[*:2])N[*:1]; Cya = N[C@@H](CS(=O)(=O)O)C(=O)O; Trx = NC[C@H]1CC[C@H](C(=O)O)CC1; AEEA = NCCOCCOCC(=O)O; Aib = CC(C)(N)C(=O)O

Legend:
[1] = in vivo; settings: male, Göttingen, minipig, iv
Description: The purpose of this study is to determine the protraction in vivo of the GLP-1 derivatives after i.v. administration to minipigs, i.e. the prolongation of their time in the body and thereby their time of action. This is done in a pharmacokinetic (PK) study, where the terminal half-life of the derivative in question is determined. By terminal half-life is meant the time it takes to halve a certain plasma concentration in the terminal elimination phase.
Male Göttingen minipigs were obtained from Ellegaard Göttingen Minipigs (Dalmose, Denmark) approximately 7-14 months of age and weighing approximately 16-35 kg were used in the studies. The minipigs were housed either individually (pigs with permanent catheters) or in a group and fed restrictedly once or twice daily with SDS minipig diet (Special Diets Services, Essex, UK).
After at least 2 weeks of acclimatisation two permanent central venous catheters were implanted in vena cava caudalis or cranialis in each animal. The animals were allowed 1 week recovery after the surgery, and were then used for repeated pharmacokinetic studies with a suitable wash-out period between successive GLP-1 derivative dosings.
Blood samples (for example 0.8 ml) were collected in EDTA buffer (8 mM) and then centrifuged at 4° C. and 1942G for 10 minutes.
Plasma was pipetted into Micronic tubes on dry ice, and kept at −20° C. until analysed for plasma concentration of the respective GLP-1 compound using LOCI. Individual plasma concentration-time profiles were analyzed by a non-compartmental pharmacokinetic method in Phoenix v. 6.2 (Pharsight Inc., Mountain View, Calif., USA), or other relevant software for PK analysis, and the resulting terminal half-lives (harmonic mean) determined.

[2] = target: T1, human GLP-1 receptor (Homo sapiens, UniProt P43220); assay: GLP-1 receptor binding: competitive binding assay (125I-GLP-1, SPA) on isolated membranes at low and high HSA; settings: high serum albumin (2.0% HSA final assay concentration); displacement of 125I-GLP-1
T1 construct: expressed in transfected cells; host or cells: BHK cells (parent line BHKTS13), clone FCW467-12A; membrane preparation
T1 sequence (P43220 24-463): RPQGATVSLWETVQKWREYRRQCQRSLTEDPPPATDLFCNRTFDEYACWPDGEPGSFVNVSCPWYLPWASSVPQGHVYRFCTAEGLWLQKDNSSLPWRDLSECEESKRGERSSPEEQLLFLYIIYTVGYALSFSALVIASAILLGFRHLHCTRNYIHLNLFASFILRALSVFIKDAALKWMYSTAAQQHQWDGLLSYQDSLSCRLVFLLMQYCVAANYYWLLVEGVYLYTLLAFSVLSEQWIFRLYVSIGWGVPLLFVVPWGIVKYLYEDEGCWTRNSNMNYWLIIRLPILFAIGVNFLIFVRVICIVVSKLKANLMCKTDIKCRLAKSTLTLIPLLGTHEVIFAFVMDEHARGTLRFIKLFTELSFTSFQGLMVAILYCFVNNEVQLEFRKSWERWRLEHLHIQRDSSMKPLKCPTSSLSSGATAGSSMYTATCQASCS
Description: The purpose of this example is to test the receptor binding of the GLP-1 derivatives in vitro. The receptor binding is a measure of affinity of a derivative for the human GLP-1 receptor.
In this type of assay a labelled ligand (in this case ^125I-GLP-1) is bound to the receptor. Each derivative is added in a series of concentrations to isolated membranes containing the human GLP-1 receptor and displacement of the labelled ligand is monitored. The receptor binding is reported as the concentration at which half of the labelled ligand is displaced from the receptor, the IC50 value.
The following chemicals were used in the assay: Human serum albumin (HSA) (Sigma A1653), DMEM w/o phenol red (Gibco 11880-028), Pen/strep (Invitrogen 15140-122), G418 (Invitrogen 10131-027), 1 M Hepes (Gibco 15630), EDTA (Invitrogen 15575-038), PBS (Invitrogen 14190-094), fetal calf serum (Invitrogen 16140-071), EGTA, MgCl2 (Merck 1.05832.1000), Tween 20 (Amresco 0850C335), SPA particles (wheat germ agglutinin (WGA) SPA beads, Perkin Elmer RPNQ0001), [^125I]-GLP-1]-(7-36)NH2 (produced in-house), OptiPlate™-96 (Packard 6005290).
Buffer 1 consisted of 20 mM Na-HEPES plus 10 mM EDTA and pH was adjusted to 7.4. Buffer 2 consisted of 20 mM Na-HEPES plus 0.1 mM EDTA and pH was adjusted to 7.4. Assay buffer consisted of 50 mM HEPES supplemented with 5 mM EGTA, 5 mM MgCl2, 0.005% Tween 20 and pH was adjusted to 7.4. An 8% albumin stock consisted of HSA dissolved at 8% (w/v) in assay buffer. An 0.02% albumin stock consisted of HSA dissolved at 0.02% (w/v) in assay buffer.
The cells express the human GLP-1 receptor.
The cells were grown at 5% CO2 in DMEM, 10% fetal calf serum, 1% Pen/Strep (Penicillin/Streptomycin) and 1.0 mg/ml of the selection marker G418.
To make a membrane preparation the cells were grown to approximately 80% confluence. The cells were washed twice in phosphate-buffered saline and harvested. The cells were pelleted using a brief centrifugation and the cell pellet was kept on ice. The cell pellet was homogenised with ULTRA-THURRAX™ dispersing instrument for 20-30 seconds in a suitable amount of buffer 1 (e.g., 10 ml). The homogenate was centrifuged for 15 minutes. The pellet was re-suspended (homogenised) in 10 ml buffer 2 and centrifuged. This step was repeated once more. The resulting pellet was re-suspended in buffer 2 and the protein concentration was determined. The membranes were aliquoted and stored at minus 80° C.
For the receptor binding assay in the presence of low HSA (0.005%) 50 μl of the assay buffer was added to each well of an assay plate. Assay continued with step 3.
For the receptor binding assay in the presence of high HSA (2%) 50 μl of the 8% albumin stock was added to each well of an assay plate. Assay continued with step 3.
Cell membrane aliquots were thawed and diluted to their working concentration. Fifty μl were added to each well in the assay plate.
WGA SPA beads were suspended in assay buffer at 20 mg/ml. The suspension was diluted to 10 mg/ml in assay buffer just prior to addition to the assay plate. Fifty μl were added to each well in the assay plate.
The incubation was started by adding 25 μl of 480 pM solution of [^125I]-GLP-1]-(7-36)NH2 to each well of the assay plate. A 25 μl aliquot was reserved for measuring total counts/well.
The assay plate was incubated for 2 h at 30° C.
The assay plate was centrifuged for 10 min.
The assay plate was read in a Packard TopCount NXT instrument.
The data from the TopCount instrument were transferred to GraphPad Prism software. The software averaged the values for the replicates and performed a non-linear regression. IC50 values were calculated by the software and reported in nM.

CC[C@H](C)[C@H](NC(=O)[C@H](Cc1ccccc1)NC(=O)[C@H](CCC(=O)O)NC(=O)[C@H](CCCNC(=N)N)NC(=O)[C@H](C)NC(=O)[C@H](C)NC(=O)[C@H](CCC(N)=O)NC(=O)[C@H](CCCCNC(=O)COCCOCCNC(=O)COCCOCCNC(=O)[C@H](CS(=O)(=O)O)NC(=O)CCCCCCCCCCCCCCCS(=O)(=O)O)NC(=O)[C@H](CCC(=O)O)NC(=O)[C@H](CC(C)C)NC(=O)[C@H](Cc1ccc(O)cc1)NC(=O)[C@H](CCCCNC(=O)COCCOCCNC(=O)COCCOCCNC(=O)[C@H](CS(=O)(=O)O)NC(=O)CCCCCCCCCCCCCCCS(=O)(=O)O)NC(=O)[C@H](CO)NC(=O)[C@@H](NC(=O)[C@H](CC(=O)O)NC(=O)[C@H](CO)NC(=O)[C@@H](NC(=O)[C@H](Cc1ccccc1)NC(=O)[C@@H](NC(=O)CNC(=O)[C@H](CCC(=O)O)NC(=O)C(C)(C)NC(=O)[C@@H](N)Cc1c[nH]cn1)[C@@H](C)O)[C@@H](C)O)C(C)C)C(=O)N[C@@H](CCCCNC(=O)COCCOCCNC(=O)COCCOCCNC(=O)[C@H](CS(=O)(=O)O)NC(=O)CCCCCCCCCCCCCCCS(=O)(=O)O)C(=O)N[C@@H](Cc1c[nH]c2ccccc12)C(=O)N[C@@H](CC(C)C)C(=O)N[C@H](C(=O)N[C@@H](CCCNC(=N)N)C(=O)NCC(=O)N[C@@H](CCCNC(=N)N)C(=O)NCC(=O)O)C(C)C [Example 2] (H-H[Aib]EGTFTSDVSK([AEEA-AEEA-Cya-Hexadecanoyl(16-SO3H)])YLEK([AEEA-AEEA-Cya-Hexadecanoyl(16-SO3H)])QAAREFIK([AEEA-AEEA-Cya-Hexadecanoyl(16-SO3H)])WLVRGRG-OH; N-terminus and C-terminus assumed)
half-life [1]: 140 h

CC[C@H](C)[C@H](NC(=O)[C@H](Cc1ccccc1)NC(=O)[C@H](CCC(=O)O)NC(=O)[C@H](CCCCNC(=O)[C@@H](N)CCCCNC(=O)[C@H](CO)NC(=O)[C@H](CO)NC(=O)[C@H](CO)NC(=O)[C@H](CO)NC(=O)[C@H](CO)NC(=O)CC[C@H](NC(=O)CCCCCCCCCCCCCCCCC(=O)O)C(=O)O)NC(=O)[C@H](C)NC(=O)[C@H](C)NC(=O)[C@H](CCC(N)=O)NC(=O)CNC(=O)[C@H](CCC(=O)O)NC(=O)[C@H](CC(C)C)NC(=O)[C@H](Cc1ccc(O)cc1)NC(=O)[C@H](CCCCNC(=O)[C@@H](N)CCCCNC(=O)[C@H](CO)NC(=O)[C@H](CO)NC(=O)[C@H](CO)NC(=O)[C@H](CO)NC(=O)[C@H](CO)NC(=O)CC[C@H](NC(=O)CCCCCCCCCCCCCCCCC(=O)O)C(=O)O)NC(=O)[C@H](CO)NC(=O)[C@@H](NC(=O)[C@H](CC(=O)O)NC(=O)[C@H](CO)NC(=O)[C@@H](NC(=O)[C@H](Cc1ccccc1)NC(=O)[C@@H](NC(=O)CNC(=O)[C@H](CCC(=O)O)NC(=O)C(C)(C)NC(=O)[C@@H](N)Cc1c[nH]cn1)[C@@H](C)O)[C@@H](C)O)C(C)C)C(=O)N[C@@H](C)C(=O)N[C@@H](Cc1c[nH]c2ccccc12)C(=O)N[C@@H](CC(C)C)C(=O)N[C@H](C(=O)N[C@@H](CCCNC(=N)N)C(=O)NCC(=O)N[C@@H](CCCNC(=N)N)C(=O)N[C@@H](CCCCNC(=O)[C@@H](N)CCCCNC(=O)[C@H](CO)NC(=O)[C@H](CO)NC(=O)[C@H](CO)NC(=O)[C@H](CO)NC(=O)[C@H](CO)NC(=O)CC[C@H](NC(=O)CCCCCCCCCCCCCCCCC(=O)O)C(=O)O)C(=O)O)C(C)C [Example 3]
half-life [1]: 120 h

CC[C@H](C)[C@H](NC(=O)[C@H](Cc1ccccc1)NC(=O)[C@H](CCC(=O)O)NC(=O)[C@H](CCCNC(=N)N)NC(=O)[C@H](C)NC(=O)[C@H](C)NC(=O)[C@H](CCC(N)=O)NC(=O)[C@H](CCCCNC(=O)COCCOCCNC(=O)COCCOCCNC(=O)[C@H](CS(=O)(=O)O)NC(=O)[C@H]1CC[C@H](CNC(=O)CCCCCCCCCCCCCCCS(=O)(=O)O)CC1)NC(=O)[C@H](CCC(=O)O)NC(=O)[C@H](CC(C)C)NC(=O)[C@H](Cc1ccc(O)cc1)NC(=O)[C@H](CCCCNC(=O)COCCOCCNC(=O)COCCOCCNC(=O)[C@H](CS(=O)(=O)O)NC(=O)[C@H]1CC[C@H](CNC(=O)CCCCCCCCCCCCCCCS(=O)(=O)O)CC1)NC(=O)[C@H](CO)NC(=O)[C@@H](NC(=O)[C@H](CC(=O)O)NC(=O)[C@H](CO)NC(=O)[C@@H](NC(=O)[C@H](Cc1ccccc1)NC(=O)[C@@H](NC(=O)CNC(=O)[C@H](CCC(=O)O)NC(=O)C(C)(C)NC(=O)[C@@H](N)Cc1c[nH]cn1)[C@@H](C)O)[C@@H](C)O)C(C)C)C(=O)N[C@@H](CCCCNC(=O)COCCOCCNC(=O)COCCOCCNC(=O)[C@H](CS(=O)(=O)O)NC(=O)[C@H]1CC[C@H](CNC(=O)CCCCCCCCCCCCCCCS(=O)(=O)O)CC1)C(=O)N[C@@H](Cc1c[nH]c2ccccc12)C(=O)N[C@@H](CC(C)C)C(=O)N[C@H](C(=O)N[C@@H](CCCNC(=N)N)C(=O)NCC(=O)N[C@@H](CCCNC(=N)N)C(=O)NCC(=O)O)C(C)C [Example 4] (H-H[Aib]EGTFTSDVSK([AEEA-AEEA-Cya-Trx-Hexadecanoyl(16-SO3H)])YLEK([AEEA-AEEA-Cya-Trx-Hexadecanoyl(16-SO3H)])QAAREFIK([AEEA-AEEA-Cya-Trx-Hexadecanoyl(16-SO3H)])WLVRGRG-OH; N-terminus and C-terminus assumed)
half-life [1]: 120 h

CC[C@H](C)[C@H](NC(=O)[C@H](Cc1ccccc1)NC(=O)[C@H](CCCCNC(=O)COCCOCCNC(=O)COCCOCCNC(=O)CC[C@H](NC(=O)CCCCCCCCCCCCCCCCC(=O)O)C(=O)O)NC(=O)[C@H](CCCNC(=N)N)NC(=O)[C@H](C)NC(=O)[C@H](C)NC(=O)[C@H](CCC(N)=O)NC(=O)[C@H](CCC(=O)O)NC(=O)[C@H](CCC(=O)O)NC(=O)[C@H](CC(C)C)NC(=O)[C@H](Cc1ccc(O)cc1)NC(=O)[C@H](CCCCNC(=O)COCCOCCNC(=O)COCCOCCNC(=O)CC[C@H](NC(=O)CCCCCCCCCCCCCCCCC(=O)O)C(=O)O)NC(=O)[C@H](CO)NC(=O)[C@@H](NC(=O)[C@H](CC(=O)O)NC(=O)[C@H](CO)NC(=O)[C@@H](NC(=O)[C@H](Cc1ccccc1)NC(=O)[C@@H](NC(=O)CNC(=O)[C@H](CCC(=O)O)NC(=O)C(C)(C)NC(=O)[C@@H](N)Cc1c[nH]cn1)[C@@H](C)O)[C@@H](C)O)C(C)C)C(=O)N[C@@H](C)C(=O)N[C@@H](Cc1c[nH]c2ccccc12)C(=O)N[C@@H](CC(C)C)C(=O)N[C@H](C(=O)N[C@@H](CCCNC(=N)N)C(=O)NCC(=O)N[C@@H](CCCNC(=N)N)C(=O)N[C@@H](CCCCNC(=O)COCCOCCNC(=O)COCCOCCNC(=O)CC[C@H](NC(=O)CCCCCCCCCCCCCCCCC(=O)O)C(=O)O)C(=O)O)C(C)C [Example 5] (H-H[Aib]EGTFTSDVSK([AEEA-AEEA-γGlu-C18 diacid])YLEEQAARK([AEEA-AEEA-γGlu-C18 diacid])FIAWLVRGRK([AEEA-AEEA-γGlu-C18 diacid])-OH; N-terminus and C-terminus assumed)
IC50 [2]: > 1000 nM

CC[C@H](C)[C@H](NC(=O)[C@H](Cc1ccccc1)NC(=O)[C@H](CCC(=O)O)NC(=O)[C@H](CCCCNC(=O)[C@H](CO)NC(=O)[C@H](CO)NC(=O)[C@H](CO)NC(=O)[C@H](CO)NC(=O)[C@H](CO)NC(=O)[C@H](CO)NC(=O)CC[C@H](NC(=O)CCCCCCCCCCCCCCCCC(=O)O)C(=O)O)NC(=O)[C@H](C)NC(=O)[C@H](C)NC(=O)[C@H](CCC(N)=O)NC(=O)CNC(=O)[C@H](CCC(=O)O)NC(=O)[C@H](CC(C)C)NC(=O)[C@H](Cc1ccc(O)cc1)NC(=O)[C@H](CCCCNC(=O)[C@H](CO)NC(=O)[C@H](CO)NC(=O)[C@H](CO)NC(=O)[C@H](CO)NC(=O)[C@H](CO)NC(=O)[C@H](CO)NC(=O)CC[C@H](NC(=O)CCCCCCCCCCCCCCCCC(=O)O)C(=O)O)NC(=O)[C@H](CO)NC(=O)[C@@H](NC(=O)[C@H](CC(=O)O)NC(=O)[C@H](CO)NC(=O)[C@@H](NC(=O)[C@H](Cc1ccccc1)NC(=O)[C@@H](NC(=O)CNC(=O)[C@H](CCC(=O)O)NC(=O)C(C)(C)NC(=O)[C@@H](N)Cc1c[nH]cn1)[C@@H](C)O)[C@@H](C)O)C(C)C)C(=O)N[C@@H](C)C(=O)N[C@@H](Cc1c[nH]c2ccccc12)C(=O)N[C@@H](CC(C)C)C(=O)N[C@H](C(=O)N[C@@H](CCCNC(=N)N)C(=O)NCC(=O)N[C@@H](CCCNC(=N)N)C(=O)N[C@@H](CCCCNC(=O)[C@H](CO)NC(=O)[C@H](CO)NC(=O)[C@H](CO)NC(=O)[C@H](CO)NC(=O)[C@H](CO)NC(=O)[C@H](CO)NC(=O)CC[C@H](NC(=O)CCCCCCCCCCCCCCCCC(=O)O)C(=O)O)C(=O)O)C(C)C [Example 8]
half-life [1]: 138 h

CC[C@H](C)[C@H](NC(=O)[C@H](Cc1ccccc1)NC(=O)[C@H](CCC(=O)O)NC(=O)[C@H](CCCCNC(=O)[C@@H](N)CCCCNC(=O)COCCOCCNC(=O)COCCOCCNC(=O)[C@H](CS(=O)(=O)O)NC(=O)CCCCCCCCCCCCCCCS(=O)(=O)O)NC(=O)[C@H](C)NC(=O)[C@H](C)NC(=O)[C@H](CCC(N)=O)NC(=O)[C@H](CCC(=O)O)NC(=O)[C@H](CCC(=O)O)NC(=O)[C@H](CC(C)C)NC(=O)[C@H](Cc1ccc(O)cc1)NC(=O)[C@H](CO)NC(=O)[C@H](CO)NC(=O)[C@@H](NC(=O)[C@H](CC(=O)O)NC(=O)[C@H](CO)NC(=O)[C@@H](NC(=O)[C@H](Cc1ccccc1)NC(=O)[C@@H](NC(=O)CNC(=O)[C@H](CCC(=O)O)NC(=O)C(C)(C)NC(=O)[C@@H](N)Cc1c[nH]cn1)[C@@H](C)O)[C@@H](C)O)C(C)C)C(=O)N[C@@H](CCCCNC(=O)[C@@H](N)CCCCNC(=O)COCCOCCNC(=O)COCCOCCNC(=O)[C@H](CS(=O)(=O)O)NC(=O)CCCCCCCCCCCCCCCS(=O)(=O)O)C(=O)N[C@@H](Cc1c[nH]c2ccccc12)C(=O)N[C@@H](CC(C)C)C(=O)N[C@H](C(=O)N[C@@H](CCCNC(=N)N)C(=O)NCC(=O)N[C@@H](CCCNC(=N)N)C(=O)N[C@@H](CCCCNC(=O)[C@@H](N)CCCCNC(=O)COCCOCCNC(=O)COCCOCCNC(=O)[C@H](CS(=O)(=O)O)NC(=O)CCCCCCCCCCCCCCCS(=O)(=O)O)C(=O)O)C(C)C [Example 12]
half-life [1]: 111 h
